Results taken from ChEMBL document CHEMBL1909046, “DrugMatrix in vitro pharmacology data”.

What was measured:
[1] = target: Beta-1 adrenergic receptor (Homo sapiens, UniProt P08588); assay: DRUGMATRIX: Adrenergic beta1 radioligand binding (ligand: [125I] Cyanopindolol); assay type: cell membranes, CHO-K1, Membrane; settings: Not Active = under 50% inhibition at 10 µM; for Ki: read-out: Ki
[2] = target: T1, C-X-C chemokine receptor type 2 (Homo sapiens, UniProt P25025); assay type: cell membranes, Membrane; settings: cho-k1; also: in other assays of this panel Not Active means under 50% inhibition at 10 µM
T1 sequence (P25025 whole entry): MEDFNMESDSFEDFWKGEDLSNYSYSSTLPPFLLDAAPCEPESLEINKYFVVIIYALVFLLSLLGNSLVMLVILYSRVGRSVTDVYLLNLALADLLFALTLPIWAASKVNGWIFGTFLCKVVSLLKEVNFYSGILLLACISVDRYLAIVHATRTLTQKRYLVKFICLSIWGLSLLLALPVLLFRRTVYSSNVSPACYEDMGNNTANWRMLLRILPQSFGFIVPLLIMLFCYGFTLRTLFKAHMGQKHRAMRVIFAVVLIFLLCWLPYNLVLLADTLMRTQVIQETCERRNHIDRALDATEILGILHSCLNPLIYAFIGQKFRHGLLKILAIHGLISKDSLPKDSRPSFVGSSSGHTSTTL

[3] = target: Cytochrome P450 2C19 (Homo sapiens, UniProt P33261); settings: bti-tn-5b1-4; also: in other assays of this panel Not Active means under 50% inhibition at 10 µM
Chain of Cytochrome P450 2C19 (P33261 whole entry): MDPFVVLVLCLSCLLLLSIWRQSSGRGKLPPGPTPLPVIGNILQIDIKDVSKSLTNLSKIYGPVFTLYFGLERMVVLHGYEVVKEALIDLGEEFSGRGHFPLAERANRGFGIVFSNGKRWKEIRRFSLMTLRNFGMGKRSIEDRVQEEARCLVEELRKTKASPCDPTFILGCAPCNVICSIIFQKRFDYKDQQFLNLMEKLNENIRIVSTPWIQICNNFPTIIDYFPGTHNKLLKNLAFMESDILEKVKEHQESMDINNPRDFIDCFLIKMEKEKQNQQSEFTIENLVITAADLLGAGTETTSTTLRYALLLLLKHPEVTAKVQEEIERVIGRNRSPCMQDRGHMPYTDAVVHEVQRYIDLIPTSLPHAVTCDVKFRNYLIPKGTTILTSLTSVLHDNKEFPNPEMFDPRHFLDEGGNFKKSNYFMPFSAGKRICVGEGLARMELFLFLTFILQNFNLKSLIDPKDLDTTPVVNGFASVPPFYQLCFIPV

[4] = target: T2, Cysteinyl leukotriene receptor 1 (Homo sapiens, UniProt Q9Y271); assay type: cell membranes, Membrane; settings: cho-k1; also: in other assays of this panel Not Active means under 50% inhibition at 10 µM
T2 sequence (Q9Y271 whole entry): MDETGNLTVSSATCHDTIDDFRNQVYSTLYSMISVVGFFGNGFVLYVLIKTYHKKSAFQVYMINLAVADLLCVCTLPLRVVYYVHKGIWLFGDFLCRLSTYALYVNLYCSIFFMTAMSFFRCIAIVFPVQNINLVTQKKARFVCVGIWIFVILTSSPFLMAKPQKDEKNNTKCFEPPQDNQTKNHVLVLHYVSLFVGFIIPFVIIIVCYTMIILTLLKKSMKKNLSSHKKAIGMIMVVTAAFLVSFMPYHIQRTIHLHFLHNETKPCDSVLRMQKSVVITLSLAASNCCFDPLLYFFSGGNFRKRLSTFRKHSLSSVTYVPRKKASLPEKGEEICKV

[5] = target: T3, Cytochrome P450 2A6 (Homo sapiens, UniProt P11509); settings: bti-tn-5b1-4; also: in other assays of this panel Not Active means under 50% inhibition at 10 µM
T3 sequence (P11509 whole entry): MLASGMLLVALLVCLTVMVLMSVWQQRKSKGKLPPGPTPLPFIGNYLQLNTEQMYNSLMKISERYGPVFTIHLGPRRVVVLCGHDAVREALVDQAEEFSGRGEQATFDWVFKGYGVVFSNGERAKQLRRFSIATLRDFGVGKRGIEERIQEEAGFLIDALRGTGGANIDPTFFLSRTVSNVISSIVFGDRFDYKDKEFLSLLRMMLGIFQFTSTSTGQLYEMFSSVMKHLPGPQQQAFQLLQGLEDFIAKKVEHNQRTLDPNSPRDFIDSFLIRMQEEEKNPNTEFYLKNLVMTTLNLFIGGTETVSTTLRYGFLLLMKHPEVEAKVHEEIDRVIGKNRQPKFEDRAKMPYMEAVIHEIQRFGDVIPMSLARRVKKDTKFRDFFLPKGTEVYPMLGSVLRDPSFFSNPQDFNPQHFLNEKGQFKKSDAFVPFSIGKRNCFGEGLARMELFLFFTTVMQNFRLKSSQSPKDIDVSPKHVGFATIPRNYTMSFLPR

[6] = DRUGMATRIX: Calcium Channel Type L, Benzothiazepine radioligand binding (ligand: [3H] Diltiazem); assay type: cell membranes, Rattus norvegicus, Wistar, Brain, Membrane; settings: Not Active = under 50% inhibition at 10 µM

Chain of Beta-1 adrenergic receptor (P08588 whole entry): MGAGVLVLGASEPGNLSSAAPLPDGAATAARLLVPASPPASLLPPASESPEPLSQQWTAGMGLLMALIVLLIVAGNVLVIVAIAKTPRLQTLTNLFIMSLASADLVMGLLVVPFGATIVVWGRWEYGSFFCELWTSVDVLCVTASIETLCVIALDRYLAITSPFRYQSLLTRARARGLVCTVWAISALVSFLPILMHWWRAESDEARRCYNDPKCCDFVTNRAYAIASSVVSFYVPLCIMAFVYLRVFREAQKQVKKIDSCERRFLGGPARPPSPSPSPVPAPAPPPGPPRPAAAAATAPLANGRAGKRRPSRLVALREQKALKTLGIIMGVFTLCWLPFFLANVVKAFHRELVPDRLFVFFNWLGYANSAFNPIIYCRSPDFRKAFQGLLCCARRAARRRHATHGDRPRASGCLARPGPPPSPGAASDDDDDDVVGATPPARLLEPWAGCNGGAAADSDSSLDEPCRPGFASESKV

| Compound | IC50 ([1]; cho-k1) | IC50 [2] | IC50 [3] | Ki [3] | IC50 [4] | IC50 [5] | Ki [5] | IC50 [6] | Ki [6] | IC50 ([1]; read-out: IC50) | Ki [1] | IC50 ([6]; read-out: IC50) | Ki ([6]; read-out: Ki) |
| --- | --- | --- | --- | --- | --- | --- | --- | --- | --- | --- | --- | --- | --- |
| CCC1(CCC(C)C)C(=O)NC(=O)NC1=O [AMOBARBITAL] | Not Active | Not Active | Not Active | Not Active | Not Active | Not Active | Not Active | Not Active | Not Active | – | – | – | – |
| CC1(C)S[C@@H]2[C@H](NC(=O)[C@H](N)c3ccccc3)C(=O)N2[C@H]1C(=O)O [AMPICILLIN] | Not Active | Not Active | Not Active | Not Active | Not Active | Not Active | Not Active | Not Active | Not Active | – | – | – | – |
| COc1ccc(C2C(=O)c3ccccc3C2=O)cc1 [ANISINDIONE] | Not Active | Not Active | Not Active | Not Active | Not Active | Not Active | Not Active | Not Active | Not Active | – | – | – | – |
| O=C1O[C@H]([C@@H](O)CO)C(O)=C1O [ASCORBIC ACID] | Not Active | Not Active | Not Active | Not Active | Not Active | Not Active | Not Active | Not Active | Not Active | – | – | – | – |
| CC(C(=O)O)c1ccc2oc(-c3ccc(Cl)cc3)nc2c1 (stereo not drawn) [BENOXAPROFEN] | Not Active | Not Active | Not Active | Not Active | Not Active | Not Active | Not Active | Not Active | Not Active | – | – | – | – |
| COc1ccc2cc3[n+](cc2c1OC)CCc1cc2c(cc1-3)OCO2.[Cl-] [BERBERINE CHLORIDE] | Not Active | Not Active | Not Active | Not Active | Not Active | Not Active | Not Active | Not Active | Not Active | – | – | – | – |
| O=C(O)CCNC(=O)c1ccccc1 [BETAMIPRON] | Not Active | Not Active | Not Active | Not Active | Not Active | Not Active | Not Active | Not Active | Not Active | – | – | – | – |
| CC(=O)Oc1ccc(C(c2ccc(OC(C)=O)cc2)c2ccccn2)cc1 [BISACODYL] | Not Active | Not Active | Not Active | Not Active | Not Active | Not Active | Not Active | Not Active | Not Active | – | – | – | – |
| Cc1cc2c(OCC(CNC(C)(C)C)OC(=O)c3ccccc3)cccc2[nH]1 (stereo not drawn) [BOPINDOLOL] | – | Not Active | Not Active | Not Active | Not Active | Not Active | Not Active | – | – | 47 nM | 27 nM | 2800 nM | 2490 nM |
| Brc1c(NC2=NCCN2)ccc2nccnc12 [BRIMONIDINE] | Not Active | Not Active | Not Active | Not Active | Not Active | Not Active | Not Active | Not Active | Not Active | – | – | – | – |
| CN(C)[C@@H]1C(O)=C(C(N)=O)C(=O)[C@@]2(O)C(O)=C3C(=O)c4c(O)ccc(Cl)c4[C@@](C)(O)[C@H]3C[C@@H]12 [CHLORTETRACYCLINE] | Not Active | Not Active | Not Active | Not Active | Not Active | Not Active | Not Active | Not Active | Not Active | – | – | – | – |
| CN/C(=N\CCSCc1nc[nH]c1C)NC#N [CIMETIDINE] | Not Active | Not Active | Not Active | Not Active | Not Active | Not Active | Not Active | Not Active | Not Active | – | – | – | – |
| COc1cc(N)c(Cl)cc1C(=O)NC1CCN(CCCOc2ccc(F)cc2)CC1OC (stereo not drawn) [CISAPRIDE] | Not Active | Not Active | Not Active | Not Active | Not Active | Not Active | Not Active | – | – | – | – | 802 nM | 713 nM |
| CCC(=O)O[C@]1(C(=O)CCl)[C@@H](C)C[C@H]2[C@@H]3CCC4=CC(=O)C=C[C@]4(C)[C@@]3(F)[C@@H](O)C[C@@]21C [CLOBETASOL PROPIONATE] | Not Active | Not Active | Not Active | Not Active | Not Active | Not Active | Not Active | Not Active | Not Active | – | – | – | – |
| O=C1CN=C(c2ccccc2Cl)c2cc([N+](=O)[O-])ccc2N1 [CLONAZEPAM] | Not Active | Not Active | Not Active | Not Active | Not Active | Not Active | Not Active | Not Active | Not Active | – | – | – | – |
| C[C@@H]1C[C@H]2[C@@H]3CCC4=CC(=O)C=C[C@]4(C)[C@@]3(F)[C@@H](O)C[C@]2(C)[C@H]1C(=O)CO [DESOXIMETASONE] | Not Active | Not Active | Not Active | Not Active | Not Active | Not Active | Not Active | Not Active | Not Active | – | – | – | – |
| CN(C)CC[C@@H](c1ccc(Cl)cc1)c1ccccn1 [DEXCHLORPHENIRAMINE] | Not Active | Not Active | Not Active | Not Active | Not Active | Not Active | Not Active | – | – | – | – | 6130 nM | 5450 nM |
| C[C@@H]1CC[C@@]2(OC1)O[C@H]1[C@@H](O)[C@H]3[C@@H]4CC[C@H]5C[C@@H](O[C@@H]6O[C@H](CO)[C@H](O[C@@H]7O[C@H](CO)C(O)[C@H](O[C@@H]8OC[C@@H](O)[C@H](O)[C@H]8O)[C@H]7O[C@@H]7O[C@H](CO)[C@H](O)[C@H](O[C@@H]8O[C@H](CO)[C@@H](O)[C@H](O)[C@H]8O)[C@H]7O)[C@H](O)[C@H]6O)[C@H](O)C[C@]5(C)[C@H]4CC[C@]3(C)[C@H]1[C@@H]2C (stereo partly drawn) [DIGITONIN] | Not Active | Not Active | Not Active | Not Active | Not Active | Not Active | Not Active | Not Active | Not Active | – | – | – | – |
| OC(CCCN1CCCCC1)(c1ccccc1)c1ccccc1 [DIPHENIDOL] | Not Active | Not Active | Not Active | Not Active | Not Active | Not Active | Not Active | Not Active | Not Active | – | – | – | – |
| C[C@H]1O[C@@H](n2cc(F)c(=O)[nH]c2=O)[C@H](O)[C@@H]1O [DOXIFLURIDINE] | Not Active | Not Active | Not Active | Not Active | Not Active | Not Active | Not Active | Not Active | Not Active | – | – | – | – |
| Cn1c(=O)c2c(ncn2CC(O)CO)n(C)c1=O (stereo not drawn) [DYPHYLLINE] | Not Active | Not Active | Not Active | Not Active | Not Active | Not Active | Not Active | Not Active | Not Active | – | – | – | – |
| C[C@@H](CO)NC(=O)[C@@H]1C=C2c3cccc4[nH]cc(c34)C[C@H]2N(C)C1 [ERGONOVINE] | Not Active | Not Active | Not Active | Not Active | Not Active | Not Active | Not Active | Not Active | Not Active | – | – | – | – |
| COC(=O)CCc1ccc(OCC(O)CNC(C)C)cc1 (stereo not drawn) [ESMOLOL] | – | Not Active | Not Active | Not Active | Not Active | Not Active | Not Active | Not Active | Not Active | 197 nM | 114 nM | – | – |
| CCC1(C)CC(=O)NC1=O (stereo not drawn) [ETHOSUXIMIDE] | Not Active | Not Active | Not Active | Not Active | Not Active | Not Active | Not Active | Not Active | Not Active | – | – | – | – |
